Source: US8138191B2, “Inhibitor compounds and cancer treatment methods” (Critical Outcome Technologies Inc., priority 2007, dated 2012)

Tests used:
[1] = Metabolic Stability (liver microsomes, dog, Beagle); format: in vitro ADME; conditions: 1.0E−06 M, 60 min
Method: (§1) Metabolic stability was determined in human (mixed gender and pool of 50) monkey (male Cynomolgus, pool of 6 or more), dog male, beagle, pool of 4 or more) and rat (male Sprague-Dawley, pool of 100 or more) liver microsomes. […] Four reference substrates (1 μM) were tested simultaneously with COTI-2. […] Peak areas corresponding to COTI-2 were recorded by HPLC-MS/MS. Metabolic stability, expressed as percent of COTI-2 remaining, was calculated by comparing the peak area of COTI-2 at 60 min to time zero.

[2] = tested on: Akt kinase activity in DMS-114 cells; test: Akt kinase activity (immunoprecipitated Akt, GSK-3 phosphorylation), DMS-114; conditions: DMS-114, 250 nM, 8 hrs
[3] = tested on: HCT-116 human colon tumor xenograft; test: HCT-116 human colon tumor xenograft model; conditions: for Deaths: N 10
CYP1A = CYP1A (Homo sapiens, UniProt P05177); test: in vitro; conditions: both
[4] = tested on: A549, H460, DMS114 and SHP77 cells; test: Western blot of total mTOR, mTOR phospho-Ser2448/Ser2481 and Akt phospho-Thr308; format: cell-based, human; conditions: 4 h
[5] = tested on: total Akt protein in DMS-114 cells; test: Total Akt by western blot analysis, DMS-114; format: cell-based, human; conditions: DMS-114, 250 nM, after 24 hrs
Method: Cell viability was determined at 24, 48, and 96 hrs by the trypan exclusion method. Whole cell lysates were prepared using standard procedures and fifty micrograms of lysate protein was separated on SDS-PAGE gels and analyzed by western blotting.
Cell viability was determined at 24, 48, and 96 h by the trypan exclusion method. Whole cell lysates were prepared using standard procedures and 50 μg of lysate protein was separated on SDS-PAGE gels and analyzed by western blotting.

HL-60 = test: Flow cytometric analysis of cell death (Annexin V/PI), HL-60; format: cell-based, human; conditions: HL-60, 200 nM
Method: (§2) All cell lines were grown and exposed to various concentrations of COTI-2 or vehicle only control and the percentage of dead or dying cells were determined 24 and 48 h post-exposure by Annexin V and propidium iodide.
(§3) HL-60 (human promyelocytic leukemia) cells were grown as non-adherent cells in flasks in RPMI 1640 medium supplemented with 10% FBS. H226 (human non-small cell lung cancer) cells were grown in Eagle's MEM supplemented with 10% FBS. Both cell lines were obtained from the American Type Culture Collection (ATCC)(Rockville, Md.) and maintained at 37° C. in a humidified 5% CO2 atmosphere.
(§4) Cells were plated in 25-cm^2 flasks and treated with COTI-2 (0-100 μM) added from a stock DMSO/DMEM solution such that DMSO concentrations never exceeded 0.5%. Control cells were treated with stock DMSO/DMEM. […] Resuspended cells (100 μl) were incubated in the dark with 10 μl propidium iodide (PI, 50 ng per ml; Sigma, St. Louis, Mo.) plus Annexin V-FITC (25 ng per ml, green fluorescence; BD Biosciences, Mississauga, Ontario). […] Samples were analyzed for combined Annexin V/PI staining (to assess dead plus apoptotic cells) using a Beckman Coulter EPCS XL-MCL flow cytometer (Beckman Coulter, Hileah, Fla.) and the data were analyzed with CellQuest software.

H226 = test: Flow cytometric analysis of cell death (Annexin V/PI), H226; format: cell-based, human; conditions: H226, 15 μM, 48 h
Method: as §2, §3, §4

[6] = Metabolic Stability (liver microsomes, human); format: in vitro ADME
Method: as §1

Sequence of CYP1A (P05177 whole entry): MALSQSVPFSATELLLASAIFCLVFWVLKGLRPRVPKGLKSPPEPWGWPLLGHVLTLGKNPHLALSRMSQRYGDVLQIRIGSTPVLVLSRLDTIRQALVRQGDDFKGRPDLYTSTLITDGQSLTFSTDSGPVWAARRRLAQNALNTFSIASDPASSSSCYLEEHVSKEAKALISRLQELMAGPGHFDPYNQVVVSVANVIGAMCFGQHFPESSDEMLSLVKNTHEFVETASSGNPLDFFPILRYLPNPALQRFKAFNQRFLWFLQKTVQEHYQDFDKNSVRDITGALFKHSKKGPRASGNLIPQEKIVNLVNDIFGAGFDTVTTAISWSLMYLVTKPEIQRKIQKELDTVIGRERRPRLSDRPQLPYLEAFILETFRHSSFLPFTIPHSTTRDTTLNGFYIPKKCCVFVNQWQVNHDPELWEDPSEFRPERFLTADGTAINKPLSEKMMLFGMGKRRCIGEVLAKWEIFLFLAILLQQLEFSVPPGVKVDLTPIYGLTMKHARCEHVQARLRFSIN

## S=C(N/N=C1/CCCc2cccnc21)N1CCN(c2ccccn2)CC1 [COTI-2]
[1]
  Mean Parent Remaining: 5%
[2]
  Akt kinase activity: below the threshold for measurement
[3]; COTI-2 12.5 mg/kg IV
  Day 15 Mean tumor weight: 1,471.3 ± 155.9 mg
  Mean survival (Day ± SEM): 12.8 ± 0.76 days
  Deaths: 1
[3]; COTI-2 12.5 mg/kg IV, Day 17
  Maximum weight loss (%) (Day #): 20.96%
[3]; COTI-2 50.0 mg/kg IV
  Day 15 Mean tumor weight: 1,353.4 ± 127.3 mg
  Mean survival (Day ± SEM): 12.6 ± 0.83 days
  Deaths: 2
[3]; COTI-2 50.0 mg/kg IV, Day 22
  Maximum weight loss (%) (Day #): 18.43%
CYP1A; human liver microsomes, pH 7.4, probe phenacetin (10 µM)
  inhibition at 15 min, 10 µM: -2%
CYP1A; liver microsomes, pH 7.4, probe phenacetin
  inhibition at 15 min, 10 µM: < 50%
[4]; A549 cells
  PKB/Akt phospho-Thr308 levels: decreased
[4]; SHP77 cells
  mTOR phospho-Ser2448 level: reduced
[5]
  total Akt protein: decreased
HL-60; 24 h
  induction of death: greater than 30%
HL-60; 48 h
  induction of death: greater than 70%
H226
  induction of apoptosis and death: approximately 40%
[6]; 1.0 μM
  percent remaining at 60 min: 31%
[6]; 1.0E−06 M, 60 min, mean
  Mean Parent Remaining: 31%
